Tested on: four of the six Bcl-2 family proteins
Assay: Multiplex flow cytometry competition dose-response against F-Bim
Type: binding
Conditions: constant 50 nM F-Bim, dose-response series (Fig. 2b)

## CN(C)CC[C@H](CSc1ccccc1)Nc1ccc(S(=O)(=O)NC(=O)c2ccc(N3CCN(Cc4ccccc4-c4ccc(Cl)cc4)CC3)cc2)cc1[N+](=O)[O-] [ABT-737]
  ability to block F-Bim binding: block F-Bim binding to four of them at relatively low concentrations

Reference: article PMC3646541 (Nature protocols, 2011)
